Measurements published in the METLIN SMRT retention time set (Domingo-Almenara et al. 2019).

Assay: gradient 5% acetonitrile 3 min, to 50% in 2 min, to 85% in 15 min, held 3 min, 100 µL/min
Conditions: column: Zorbax Extend-C18 2.1 x 50 mm; eluents: water / acetonitrile, 0.1% formic acid
Outline: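 Standards, all pure, were combined into mixtures of ~100 molecules and run at 100 μL/min on a Zorbax Extend-C18 column (2.1 × 50 mm, 1.8 μm) with water and acetonitrile, each containing 0.1% formic acid. A coupled quadrupole time-of-flight mass spectrometer operated in positive and negative ionization mode. Retention time values come from computationally picked adduct peaks, each inspected manually.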

SMILES: Cc1cc(-c2nnc(C3CCC3)o2)c(C)n1CC(=O)NCc1ccc(F)c(Cl)c1
- RP-LC retention time: 904 s

SMILES: Cc1ccccc1N1C(=O)CN(S(C)(=O)=O)CC1(C)C(=O)NCc1ccc(Cl)cc1 (stereo not given)
- RP-LC retention time: 778 s

SMILES: O=C1C2N=NN(Cc3nc(-c4ccc5c(c4)OCO5)no3)C2C(=O)N1c1ccc2c(c1)CCC2 (stereo not given)
- RP-LC retention time: 1000 s

SMILES: COC(=O)c1ccsc1NC(=O)c1c[nH]c2ccccc12
- RP-LC retention time: 882 s

SMILES: O=C(CCc1nc2sc3c(c2c(=O)[nH]1)CCCCC3)N1CCN(c2ccccn2)CC1
- RP-LC retention time: 603 s

SMILES: CCOC(=O)c1ccc(NC(=O)C2CCC(=O)N2S(=O)(=O)c2ccc(C)c(C)c2)cc1 (stereo not given)
- RP-LC retention time: 978 s

SMILES: O=[N+]([O-])c1ccc(-c2nc(NCCCO)c3ccccc3n2)cc1
- RP-LC retention time: 595 s

SMILES: CCCC(=O)Nc1ccc(CCc2nc3ccc(C(=O)NCCOC)cc3[nH]2)cc1
- RP-LC retention time: 599 s

SMILES: CC(=O)c1cccc(NC(=O)N2CCCN(c3nc4ccccc4n4cccc34)CC2)c1
- RP-LC retention time: 647 s

SMILES: CCc1noc(-c2cccnc2N2CCCN(Cc3ccc(Cl)cc3)CC2)n1
- RP-LC retention time: 709 s

SMILES: O=C(CN1C(=O)NC2(CCCCC2)C1=O)Nc1cc(F)cc(F)c1
- RP-LC retention time: 827 s

SMILES: Cc1cccc(-c2noc(Cn3ccn(-c4ccccc4C)c(=O)c3=O)n2)c1
- RP-LC retention time: 865 s

SMILES: CCN1C(=O)c2ccccc2Oc2ccc(C(=O)NCc3ccc(C)cc3)cc21
- RP-LC retention time: 958 s

SMILES: Cc1ccc(S(=O)(=O)N2C(=O)CCC2C(=O)NC2CCCCCCC2)cc1C (stereo not given)
- RP-LC retention time: 1060 s

SMILES: O=C(Nc1ccc(F)c(Cl)c1)N1CCCC(Cn2c(C3CC3)nc3cccnc32)C1 (stereo not given)
- RP-LC retention time: 744 s

SMILES: COc1cccc(-c2ccc(=O)n(CCc3nc(-c4cccc(OC)c4OC)no3)n2)c1
- RP-LC retention time: 921 s

SMILES: O=C(Cn1nc2nc(Nc3ccc(F)cc3)ccn2c1=O)Nc1ccccc1F
- RP-LC retention time: 754 s

SMILES: Cc1nn(C(C)C)c(C)c1S(=O)(=O)N1CCN(C(=O)c2cncc(Br)c2)CC1
- RP-LC retention time: 762 s

SMILES: Cc1ccc2c(c1)N(S(C)(=O)=O)CCC(C(=O)Nc1cccc(Br)c1)O2 (stereo not given)
- RP-LC retention time: 1060 s

SMILES: COc1cccc(NC(=O)NCCc2nc3cccnc3n2C2CCCC2)c1
- RP-LC retention time: 696 s

SMILES: CC(Oc1ccccc1)C(=O)N1CCN(c2nc(CN3CCCCC3)cs2)CC1 (stereo not given)
- RP-LC retention time: 650 s

SMILES: COc1ccc(-c2nnc(CC(=O)NCC3CCCO3)o2)cc1 (stereo not given)
- RP-LC retention time: 650 s

SMILES: CCCOc1nc2ccccc2nc1N1CCCC(C(=O)NCc2ccccc2Cl)C1 (stereo not given)
- RP-LC retention time: 1270 s

SMILES: CS(=O)(=O)c1ccc(SCC(=O)N2CCOCC2)c([N+](=O)[O-])c1
- RP-LC retention time: 636 s

SMILES: COc1ccc(CNC(=O)CCC2CCN(c3cc(NC4CC4)ncn3)CC2)cc1
- RP-LC retention time: 645 s

SMILES: CNC(=O)c1cc(N2CCOCC2)nc2ccc(F)cc12
- RP-LC retention time: 590 s

SMILES: Cc1ccc(C(=O)N2CCCCCCNC(=O)[C@@H]3CCCC[C@@H]32)s1
- RP-LC retention time: 813 s

SMILES: COc1ccccc1-c1noc(-c2nnn(Cc3nc(-c4ccccc4OC)oc3C)c2C)n1
- RP-LC retention time: 1060 s

SMILES: Cc1cc(=O)n(CC(=O)Nc2cccc(C)c2C)c(N2CCOCC2)n1
- RP-LC retention time: 673 s

SMILES: Cc1cc2[nH]c(C(=O)Nc3cc(F)ccc3F)c(CN3CCCC3)c2s1
- RP-LC retention time: 702 s

SMILES: O=C(NC1CCCc2c1[nH]c1ccc(F)cc21)c1ccncc1 (stereo not given)
- RP-LC retention time: 774 s

SMILES: CN1CCC(OC2CCN(C(=O)CC3CCCC3)CC2)CC1
- RP-LC retention time: 596 s

SMILES: Cn1c(C(=O)NC2CCCCCC2)cc2sccc21
- RP-LC retention time: 1020 s

SMILES: CCC(=O)N1CCc2cc(N3CC(C(=O)NCc4ccccc4)CC3=O)ccc21 (stereo not given)
- RP-LC retention time: 699 s

SMILES: CNC(=O)Cn1nc(C2CCN(C(=O)c3nccc4ccccc34)CC2)c2c1CCOC2
- RP-LC retention time: 609 s

SMILES: COc1ccccc1N1CCN(c2cc(SCC(=O)NCC3CCCO3)ncn2)CC1 (stereo not given)
- RP-LC retention time: 732 s

SMILES: O=C(CN1C(=O)CCc2cc(Br)ccc21)Nc1ccccc1
- RP-LC retention time: 889 s

SMILES: COCCCNC(=O)c1ccc2c(c1)CCCN2S(C)(=O)=O
- RP-LC retention time: 667 s

SMILES: COC(=O)c1c(-c2cccs2)csc1NC(=O)c1cc(OC)c(OC)c(OC)c1
- RP-LC retention time: 1120 s

SMILES: Cc1cc(C)n2nc(CN(C(=O)c3ccco3)c3ccccc3Cl)nc2n1
- RP-LC retention time: 743 s

SMILES: Cc1[nH]c(C)c(S(=O)(=O)N2CCC(C(=O)NC3CCCC3)CC2)c1C(=O)N1CCCC1
- RP-LC retention time: 659 s

SMILES: COc1ccccc1N1CCN(C(=O)CC(C)S(=O)(=O)c2ccc3c(c2)CCN3C(C)=O)CC1 (stereo not given)
- RP-LC retention time: 754 s

SMILES: Cc1csc(-c2cc(S(=O)(=O)Nc3cc(Cl)ccc3C)c(C)s2)n1
- RP-LC retention time: 1110 s

SMILES: CC(C)CN1C(=O)c2cccn2CC1C(=O)NCCCN1CCOCC1 (stereo not given)
- RP-LC retention time: 577 s

SMILES: CCCCNC(=O)c1nc(Nc2ccc(CC)cc2)c2ccccc2n1
- RP-LC retention time: 916 s

SMILES: O=C(c1ccoc1)N1CCN(c2cc(-c3ccc(Cl)cc3)[nH]n2)CC1
- RP-LC retention time: 774 s

SMILES: CCS(=O)(=O)N1CCCc2cc(C(=O)NCCC(C)C)ccc21
- RP-LC retention time: 884 s

SMILES: O=C(c1ccncc1)N1CCN(c2cc(-c3cccs3)[nH]n2)CC1
- RP-LC retention time: 619 s

SMILES: CC(C)c1nn2c(S(=O)(=O)NC3CCCCC3)c(C(C)C)nc2s1
- RP-LC retention time: 1110 s

SMILES: CCOC(=O)c1nc(NCCc2cc(OC)ccc2OC)c2ccccc2n1
- RP-LC retention time: 768 s

SMILES: CCC(=O)N1CCc2c(C(=O)N3CCN(c4ccccc4OC)CC3)cccc21
- RP-LC retention time: 786 s

SMILES: COc1ccc(-c2noc(CCCC(=O)Nc3nc(-c4ccccc4)cs3)n2)cc1
- RP-LC retention time: 1060 s

SMILES: CCc1nc(C2CN(CCc3ccccc3)CC23CCCC3)no1 (stereo not given)
- RP-LC retention time: 670 s

SMILES: COc1cccc(NC(=O)Cn2c(C)nc3c(sc4nc(-c5ccccc5)ccc43)c2=O)c1
- RP-LC retention time: 1090 s

SMILES: CC(C(=O)N1CCN(c2ncccn2)CC1)n1c2ccccc2c2cnn(C)c(=O)c21 (stereo not given)
- RP-LC retention time: 794 s

SMILES: COc1ccc(F)cc1S(=O)(=O)N1CCc2nn(CC3CC3)c(=O)n2CC1
- RP-LC retention time: 834 s

SMILES: CN(C)CCn1c2c(c(SCC(=O)Nc3ccccc3Cl)nc1=O)CCC2
- RP-LC retention time: 624 s

SMILES: CCCCNC(=O)c1nc(Nc2ccc(F)cc2)c2ccccc2n1
- RP-LC retention time: 796 s

SMILES: COc1ccc(N2CCN(c3cc(SCC(=O)Nc4ccc(F)cc4F)ncn3)CC2)cc1
- RP-LC retention time: 1050 s

SMILES: Cc1ccccc1NC(=O)N1CCC2(C1)C(=O)Nc1ccccc12 (stereo not given)
- RP-LC retention time: 727 s

SMILES: CCCCN(CC)Cc1ccc(CNC(=O)C2CCCN(c3nnc(N4CCCC4=O)s3)C2)o1 (stereo not given)
- RP-LC retention time: 611 s

SMILES: Oc1ccc2c(ccc3[nH]cnc32)c1
- RP-LC retention time: 622 s

SMILES: COc1ccc(-c2ncc3c(n2)CCN(C(=O)Nc2ccccc2OC)C3)cc1
- RP-LC retention time: 905 s

SMILES: O=C(Nc1nccs1)c1csc(Nc2ccccc2)n1
- RP-LC retention time: 815 s

SMILES: Cc1ccccc1-c1cn2ccn(-c3ccc(Cl)cc3)c(=O)c2n1
- RP-LC retention time: 883 s

SMILES: O=C(NCc1ccc(F)cc1)c1ccc2c(cnn2CC(=O)N2CCCCCC2)c1
- RP-LC retention time: 951 s

SMILES: CCCNC(=O)C1CCN(c2ccc(SCC(=O)Nc3cc(F)ccc3Cl)nn2)CC1
- RP-LC retention time: 724 s

SMILES: CCC1Oc2ccc(C)cc2N(CC(=O)NCCCN2CC(C)CC(C)C2)C1=O (stereo not given)
- RP-LC retention time: 708 s

SMILES: CCc1nc(OCC(=O)NCc2ccc(SC)cc2)c2ccccc2n1
- RP-LC retention time: 814 s

SMILES: CC(=O)NCc1nc2ccccc2n1CC(=O)Nc1ccccc1C
- RP-LC retention time: 617 s

SMILES: CC(C)NC(=O)c1cc(C2CC2)[nH]n1
- RP-LC retention time: 644 s

SMILES: O=C(Nc1ccc2c(c1)OCCO2)N1CCC(Cc2nncn2-c2ccccc2)CC1
- RP-LC retention time: 706 s

SMILES: O=C(Nc1ccc2c(c1)N(C(=O)c1ccco1)CCC2)Oc1ccccc1
- RP-LC retention time: 850 s

SMILES: CCOC(=O)Cc1ccc(NC(=O)N2CCCC2c2cc(C)on2)cc1 (stereo not given)
- RP-LC retention time: 807 s

SMILES: CCOC(=O)N1CCN(C(=O)C2CN(c3nc4ccc(OC)cc4s3)C2)CC1
- RP-LC retention time: 650 s

SMILES: CCCS(=O)(=O)N1CC(c2nc(CCOc3cccc(C)c3)no2)C1
- RP-LC retention time: 995 s

SMILES: Cc1ccc(Cn2cc(-c3noc(-c4cccc(N(C)C)c4)n3)nn2)cc1
- RP-LC retention time: 1100 s

SMILES: O=S(=O)(c1cccc(C(F)(F)F)c1)N1CCN(c2cnn3cnnc3c2)CC1
- RP-LC retention time: 668 s

SMILES: O=S(=O)(c1cccc(-c2nnc(-c3ccc(F)cc3)o2)c1)N1CCOCC1
- RP-LC retention time: 892 s

SMILES: CCn1ccc2sc(C)c(C(=O)NCc3ccccc3Br)c2c1=O
- RP-LC retention time: 926 s

SMILES: CCn1cc(S(=O)(=O)N2CCCCC2c2nc(-c3ccncc3)n[nH]2)cn1 (stereo not given)
- RP-LC retention time: 695 s

SMILES: Cc1cccc(-c2nocc2CCC(=O)O)c1
- RP-LC retention time: 758 s

SMILES: CN(C)C(=O)c1cc2c(s1)CCC(C(=O)NCc1nc3ccccc3n1C)C2 (stereo not given)
- RP-LC retention time: 595 s

SMILES: CCc1nn(C)c(=O)c2cc(S(=O)(=O)NCc3ccc(F)cc3Cl)cn12
- RP-LC retention time: 916 s

SMILES: Cc1cc(C(=O)NCc2cccc(F)c2)nc2cc(-c3cccs3)nn12
- RP-LC retention time: 1090 s

SMILES: Cc1ccc(C)c(N2CCN(C(=O)Cn3cnc4nc5c(cc4c3=O)CCCC5)CC2)c1
- RP-LC retention time: 893 s

SMILES: O=C(NCCCn1ccnc1)C(=O)Nc1c2c(nn1-c1cccc(Cl)c1)CSC2
- RP-LC retention time: 568 s

SMILES: O=C(Nc1ccc(F)cc1)c1nnc(CSCC(=O)N2CCN(c3ccccn3)CC2)s1
- RP-LC retention time: 657 s

SMILES: CCOc1ccc(NC(=O)N2CCN(c3nc4ccccc4n3C)CC2)cc1
- RP-LC retention time: 649 s

SMILES: Cc1cccc(Nc2c(-c3nc(C)no3)cnc3nc(C)ccc23)c1
- RP-LC retention time: 762 s
